According to US7259271B2, “Peripherally-selective inhibitors of dopamine-β-hydroxylase and method of their preparation” (Portela & C.A., S.A., priority 2002, dated 2007):
Counter-ions that a name gives are not always drawn.

Columns and labels:
human DβH = molecular target: T1, human DβH (Homo sapiens, UniProt P09172); assay: DβH activity (β-hydroxylation of dopamine to noradrenaline) in SK-N-SH cells; format: cell-based; settings: for remaining activity at 5 µM: SK-N-SH, 0.75 h, read-out: DβH activity in SK-N-SH cells, Mean ± SEM; for IC50 values against human DβH activity (in words): concentration-dependent decrease in β-hydroxylation of dopamine; for IC50: read-out: IC50 for inhibition of DβH in SK-N-SH cells; for inhibition of DβH activity (in words): 5 μM, as listed in Table 1
T1 construct: SK-N-SH cells (ATCC HTB-11), a human neuroblastoma derived cell line, were used as a source of human DβH; host or cells: SK-N-SH cells
T1 sequence (P09172 1-617): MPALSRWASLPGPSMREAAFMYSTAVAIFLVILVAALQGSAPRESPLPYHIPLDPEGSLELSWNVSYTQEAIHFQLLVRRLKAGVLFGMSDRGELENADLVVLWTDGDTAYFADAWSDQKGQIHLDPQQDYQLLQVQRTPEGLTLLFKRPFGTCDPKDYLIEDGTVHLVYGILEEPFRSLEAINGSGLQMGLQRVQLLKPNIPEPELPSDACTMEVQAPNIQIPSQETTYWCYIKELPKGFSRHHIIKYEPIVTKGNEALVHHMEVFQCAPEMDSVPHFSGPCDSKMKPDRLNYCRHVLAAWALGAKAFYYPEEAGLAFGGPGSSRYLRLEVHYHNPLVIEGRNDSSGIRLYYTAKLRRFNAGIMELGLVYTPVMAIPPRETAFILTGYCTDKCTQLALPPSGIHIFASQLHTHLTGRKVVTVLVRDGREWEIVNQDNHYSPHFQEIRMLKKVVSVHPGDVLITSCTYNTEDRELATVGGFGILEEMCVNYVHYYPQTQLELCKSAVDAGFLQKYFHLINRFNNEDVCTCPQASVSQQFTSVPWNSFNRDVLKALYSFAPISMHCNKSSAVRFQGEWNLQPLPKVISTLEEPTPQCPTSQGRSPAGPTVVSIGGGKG
Experimental: SK-N-SH cells (ATCC HTB-11), a human neuroblastoma derived cell line, were used as a source of human DβH. SK-N-SH cells cultured in 24 well plates were preincubated for 20 min in a reaction medium containing 200 mM sodium acetate, 30 mM N-ethylmaleimide, 5 μM copper sulphate, 0.5 mg/ml catalase aqueous solution, 1 mM pargyline, 10 mM sodium fumarate and 20 mM ascorbic acid. […] During preincubation and incubation, the cells were continuously shaken and maintained at 37° C. The reaction was terminated by the addition of 0.2 M perchloric acid. The acidified samples were stored at 4° C. before injection into the high pressure liquid chromatograph for the assay of noradrenaline.

[1] = tested on: noradrenaline tissue levels; assay: Noradrenaline tissue levels in heart and brain of mice after oral administration; format: in vivo, mouse; settings: for recovery of initial noradrenaline tissue levels: mouse heart, at 24 h; for recovery of initial noradrenaline tissue levels / Time of maximum effect (Tmax) for noradrenaline tissue reduction / duration of action in the heart: 100 mg/kg oral; for Time of maximum effect (Tmax) for noradrenaline tissue reduction / dose at which the maximal inhibitory effect was attained: mouse left ventricle; for dose at which the maximal inhibitory effect was attained / noradrenaline levels in left ventricle / noradrenaline tissue levels in the brain parietal cortex: 9 h after oral administration; for duration of action in the heart / noradrenaline levels in left ventricle / noradrenaline tissue levels in the brain parietal cortex: mouse; for duration of action in the heart: time course
Experimental: (§1) Male NMRI mice or Wistar rats were obtained from Harlan-lnterfauna (Spain) and were kept 10 and 5 per cage respectively, under controlled environmental conditions (12 h light/dark cycle and room temperature 22±1° C.). Food and tap water were allowed ad libitum and experimentation was performed during daylight hours.
(§2) At time =0 h, animals were administered with either test compounds at a given dose or vehicle (water) delivered orally via gavage. At 2, 6, 9, 12, 18 and 24 h post dose, the animals were sacrificed by decapitation and heart (left atrium and left ventricle) and brain (frontal and parietal cortex) were isolated, weighed and stored in a volume of 0.2 M perchloric acid for 12 h at 4° C. in the dark. Post incubation, the resulting supernatants were collected by centrifuge filtration of incubates ([…]/10 min/˜5000 rpm, 4° C.). Supernatants were stored frozen at −80° C. until analysis. Quantification of dopamine and noradrenaline in supernatants was performed by high pressure liquid chromatography with electrochemical detection.

[2] = tested on: noradrenaline tissue levels; assay: Noradrenaline tissue levels in heart and brain of rats after oral administration; format: in vivo; settings: rat; for noradrenaline tissue levels in brain parietal cortex and brain frontal cortex: 9 h after oral administration; for dose dependence of effects upon noradrenaline / time of maximum effect upon noradrenaline: oral
Experimental: as §1, §2

[3] = prior art finding; cited from earlier work

SMILES	remaining activity at 5 µM (human DβH)	IC50 values against human DβH activity (in words) (human DβH)	IC50 (human DβH)	recovery of initial noradrenaline tissue levels [1]	Time of maximum effect (Tmax) for noradrenaline tissue reduction [1]	dose at which the maximal inhibitory effect was attained [1]	duration of action in the heart [1]	noradrenaline levels in left ventricle [1]	noradrenaline tissue levels in the brain parietal cortex [1]	noradrenaline tissue levels in brain parietal cortex and brain frontal cortex [2]	dose dependence of effects upon noradrenaline [2]	time of maximum effect upon noradrenaline [2]	crossing of the blood brain barrier (BBB) [3]	inhibition of DβH activity (in words) (human DβH)	inhibitory effects upon noradrenaline levels in left atrium and left ventricle ([2]; 100 mg/kg oral, 9 h)
NCc1c[nH]c(=S)n1[C@H]1CCc2c(F)cc(F)cc2C1 [Compound 1, nepicastat, reference compound]	0%	low nM range	36 nM	50%	9 h	100 mg/kg	long acting	dose-dependent manner	dose-dependent decrease	marked decrease	dependent on the dose administered	9 h	cross the blood brain barrier		
Cl.NCCc1c[nH]c(=S)n1[C@H]1COc2c(F)cc(F)cc2C1 [Compound 4, (R)-5-(2-aminoethyl)-1-(6,8-difluorochroman-3-yl)-1,3-dihydroimidazole-2-thione hydrochloride]	3.3 ± 0.3%	low nM range	105 nM	50%	9 h	100 mg/kg	long acting	dose-dependent manner	failed to affect	failed to affect	dependent on the dose administered	9 h		markedly inhibit	more pronounced than those elicited by 1
Cl.Oc1ccc2c(c1)C[C@@H](n1c(CCNCc3ccccc3)c[nH]c1=S)CO2 [Compound 26, (R)-5-(2-Benzylaminoethyl)-1-(6-hydroxychroman-3-yl)-1,3-dihydroimidazole-2-thione hydrochloride]	4.5 ± 1.9%													markedly inhibit	
CNCCc1c[nH]c(=S)n1[C@H]1COc2ccc(O)cc2C1 [Compound 27, (R)-1-(6-Hydroxychroman-3-yl)-5-(2-methylaminoethyl)-1,3-dihydroimidazole-2-thione hydrochloride]	15.5 ± 5.8%														
CNCCc1c[nH]c(=S)n1[C@H]1COc2c(F)cc(F)cc2C1.Cl [Compound 28, (R)-1-(6,8-Difluorochroman-3-yl)-5-(2-methylaminoethyl)-1,3-dihydroimidazole-2-thione hydrochloride]	2.6 ± 1.6%													markedly inhibit	
CNCCc1c[nH]c(=S)n1[C@H]1COc2ccccc2C1.Cl [Compound 29, (R)-1-Chroman-3-yl-5-(2-methylaminoethyl)-1,3-dihydroimidazole-2-thione hydrochloride]	2.2 ± 2.5%													markedly inhibit	
